According to ChEMBL document CHEMBL3414493, “Design, synthesis and anticholinesterase activity of novel benzylidenechroman-4-ones bearing cyclic amine side chain” (Eur J Med Chem, 2015):
pIC50, pKi: −log10 of the molar value.

Tests used:
Acetylcholinesterase [1] = biological target: T1, Acetylcholinesterase (Electrophorus electricus, UniProt O42275)
Description: Inhibition of electric eel AChE pre-incubated for 3 mins before acetylthiocholine substrate addition by Ellman's reagent based spectrophotometry

Cholinesterase = Cholinesterase (Equus caballus, UniProt P81908)
Description: Inhibition of equine serum BuChE pre-incubated for 3 mins before butyrylthiocholine substrate addition by Ellman's reagent based spectrophotometry

Acetylcholinesterase [2] = biological target: T1, Acetylcholinesterase; remark: listed apart in the source
Description: Inhibition of electric eel AChE pre-incubated for 3 mins before acetylthiocholine substrate addition by Lineweaver-Burk plot

Sequence of Cholinesterase (P81908 whole entry): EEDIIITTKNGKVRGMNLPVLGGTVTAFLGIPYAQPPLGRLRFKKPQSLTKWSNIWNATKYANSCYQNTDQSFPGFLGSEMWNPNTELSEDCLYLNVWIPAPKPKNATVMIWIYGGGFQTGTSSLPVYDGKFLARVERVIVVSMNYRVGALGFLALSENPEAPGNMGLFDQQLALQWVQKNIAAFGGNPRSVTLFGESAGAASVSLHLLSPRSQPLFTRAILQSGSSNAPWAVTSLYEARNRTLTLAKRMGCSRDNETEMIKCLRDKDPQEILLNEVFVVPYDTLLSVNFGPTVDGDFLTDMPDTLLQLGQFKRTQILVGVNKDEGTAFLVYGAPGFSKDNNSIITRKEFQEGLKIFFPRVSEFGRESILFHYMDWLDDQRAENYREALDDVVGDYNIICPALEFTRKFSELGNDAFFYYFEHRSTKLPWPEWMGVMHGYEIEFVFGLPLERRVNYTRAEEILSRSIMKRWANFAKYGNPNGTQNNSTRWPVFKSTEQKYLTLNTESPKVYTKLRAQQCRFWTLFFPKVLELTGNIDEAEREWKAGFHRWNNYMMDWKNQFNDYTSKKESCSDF
T1 sequence (O42275 whole entry): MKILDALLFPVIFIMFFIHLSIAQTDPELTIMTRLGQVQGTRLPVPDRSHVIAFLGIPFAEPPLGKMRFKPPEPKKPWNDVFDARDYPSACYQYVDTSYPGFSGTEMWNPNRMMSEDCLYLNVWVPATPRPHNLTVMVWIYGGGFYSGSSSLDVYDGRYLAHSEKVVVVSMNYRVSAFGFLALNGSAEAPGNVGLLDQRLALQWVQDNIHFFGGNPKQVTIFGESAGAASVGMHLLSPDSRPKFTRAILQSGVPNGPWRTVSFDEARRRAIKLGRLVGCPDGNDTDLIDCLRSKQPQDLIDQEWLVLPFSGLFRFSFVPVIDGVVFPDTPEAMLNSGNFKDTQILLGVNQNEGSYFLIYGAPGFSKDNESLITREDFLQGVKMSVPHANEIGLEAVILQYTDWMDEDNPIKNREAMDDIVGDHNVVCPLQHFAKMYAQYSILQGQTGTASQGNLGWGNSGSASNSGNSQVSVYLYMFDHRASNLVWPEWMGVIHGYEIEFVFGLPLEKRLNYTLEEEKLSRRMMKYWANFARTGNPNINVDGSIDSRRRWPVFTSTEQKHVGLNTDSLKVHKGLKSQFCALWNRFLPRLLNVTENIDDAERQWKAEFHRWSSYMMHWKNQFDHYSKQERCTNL

Row | SMILES | pIC50 (Acetylcholinesterase [1]) | pIC50 (Cholinesterase) | pKi (Acetylcholinesterase [2])
1 | O=C1/C(=C/c2ccc(OCCCN3CCOCC3)cc2)COc2cc(O)ccc21 | 3.80 | – | –
2 | O=C1/C(=C/c2ccc(OCCCN3CCCCC3)cc2)COc2cc(O)ccc21 | 5.62 | 4.56 | –
3 | O=C1/C(=C/c2ccc(OCCN3CCOCC3)cc2)COc2cc(O)ccc21 | 5.09 | 4.02 | –
4 | O=C1/C(=C/c2ccc(OCCN3CCCCC3)cc2)COc2cc(O)ccc21 | 6.72 | 5.67 | –
5 | COc1ccc2c(c1)OC/C(=C\c1ccc(OCCCN3CCCCC3)cc1)C2=O | 5.48 | 4.58 | –
6 | COc1ccc2c(c1)OC/C(=C\c1ccc(OCCN3CCCCC3)cc1)C2=O | 6.76 | 5.09 | –
7 | COc1ccc2c(c1)OC/C(=C\c1ccc(OCCN3CCOCC3)cc1)C2=O | 5.72 | 4.94 | –
8 | COc1ccc2c(c1)OC/C(=C\c1ccc(OCCCN3CCOCC3)cc1)C2=O | 4.86 | 4.00 | –
9 | COc1ccc2c(c1)OC/C(=C\c1ccc(OCCCN3CCCC3)cc1)C2=O | 5.96 | 5.16 | –
10 | CCOc1ccc2c(c1)OC/C(=C\c1ccc(OCCN3CCCCC3)cc1)C2=O | 6.91 | 6.07 | 6.57
11 | CCOc1ccc2c(c1)OC/C(=C\c1ccc(OCCCN3CCOCC3)cc1)C2=O | 5.16 | 4.54 | –
12 | CCOc1ccc2c(c1)OC/C(=C\c1ccc(OCCN3CCOCC3)cc1)C2=O | 6.00 | 4.99 | –
13 | CCOc1ccc2c(c1)OC/C(=C\c1ccc(OCCCN3CCCCC3)cc1)C2=O | 6.25 | 5.51 | –
14 | O=C1/C(=C/c2ccc(OCCN3CCOCC3)cc2)COc2cc(OCc3ccccc3)ccc21 | 5.19 | 4.08 | –
15 | O=C1/C(=C/c2ccc(OCCCN3CCOCC3)cc2)COc2cc(OCc3ccccc3)ccc21 | 4.30 | – | –
16 | O=C1/C(=C/c2ccc(OCCN3CCCCC3)cc2)COc2cc(OCc3ccccc3)ccc21 | 6.68 | 5.59 | –
17 | O=C1/C(=C/c2ccc(OCCCN3CCCC3)cc2)COc2cc(OCc3ccccc3)ccc21 | 5.46 | 4.31 | –
18 | O=C1/C(=C/c2ccc(OCCCN3CCCCC3)cc2)COc2cc(OCc3ccccc3)ccc21 | 5.57 | 4.49 | –
